# From patent US9840478B2 (MERCK SHARP & DOHME CORP., priority 2013, dated 2017)
# System: HIV-1 (H9IIIB strain)
# Assay: Cell-based HIV infection assay using a reporter (Cell-Based), MT4-GFP cells
# Conditions: Human immunodeficiency virus 1, MT4-GFP cells infected with HIV-1 H9IIIB; 50% normal human serum; mean of at least two independent experiments; read-out: Cell-based IP
# Method in brief: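 IC50 from 4-parameter dose-response of % viral growth inhibition, using the 48 h/24 h infected-cell ratio scaled between DMSO and a protease/integrase/NNRTI triple-drug control. Assay used MT4 cells with HIV-LTR-GFP reporter, pre-infected 24 h with HIV-1 H9IIIB, in 50% normal human serum.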
row,Compound,IC50 [nM]
1,"COC(=O)N[C@H](C(=O)Nc1cccc(F)c1CC[C@H]1CNC[C@@H](C)N1S(=O)(=O)C1CC1)[C@@H](c1cccc(Cl)c1)C(C)C [Example 217, (βR)-3-chloro-N-(2-{2-[(2S,6R)-1-(cyclopropylsulfonyl)-6-methylpiperazin-2-yl]ethyl}-3-fluorophenyl)-Nα-(methoxycarbonyl)-β-(1-methylethyl)-L-phenylalaninamide]",1800
2,"C[C@H]1CNC[C@H](CCc2c(F)cccc2NC(=O)[C@@H](N)[C@H](c2cncc(F)c2)c2cccc(Cl)c2)N1S(=O)(=O)c1ccccc1 [Example 219, (βS)-3-chloro-N-(3-fluoro-2-{2-[(2S,6S)-6-methyl-1-(phenylsulfonyl)piperazin-2-yl]ethyl}phenyl)-β-(5-fluoropyridin-3-yl)-L-phenylalaninamide]",25
3,"C[C@H]1CNC[C@H](CCc2c(F)cccc2NC(=O)[C@@H](N)[C@@H](Cc2ccc(F)cc2)c2ccc(Cl)cc2)N1S(=O)(=O)c1ccc(OC(F)(F)F)cc1 [Example 220, (βS)-4-chloro-β-(4-fluorobenzyl)-N-(3-fluoro-2-{2-[(2S,6S)-6-methyl-1-{[4-(trifluoromethoxy)phenyl]sulfonyl}piperazin-2-yl]ethyl}phenyl)-L-phenylalaninamide]",780
4,"COC(=O)N[C@H](C(=O)Nc1cccc(F)c1CC[C@H]1CNC[C@H](C)N1S(=O)(=O)c1ccc(OC(F)(F)F)cc1)[C@@H](Cc1ccc(F)cc1)c1ccc(Cl)cc1 [Example 221, (βS)-4-chloro-β-(4-fluorobenzyl)-N-(3-fluoro-2-{2-[(2S,6S)-6-methyl-1-{[4-(trifluoromethoxy)phenyl]sulfonyl}piperazin-2-yl]ethyl}phenyl)-Nα-(methoxycarbonyl)-L-phenylalaninamide]",230
5,"COC(=O)N[C@H](C(=O)Nc1cccc(F)c1CC[C@H]1CNCC(COC(C)C)N1S(C)(=O)=O)[C@H](c1cccc(F)c1)c1cccc(Cl)c1 (stereo partly drawn) [Example 222, (βR)-β-(3-chlorophenyl)-3-fluoro-N-(3-fluoro-2-{2-[(2S)-6-[(1-methylethoxy)methyl]-1-(methylsulfonyl)piperazin-2-yl]ethyl}phenyl)-Nα-(methoxycarbonyl)-L-phenylalaninamide]",76
6,"C[C@H]1CNC[C@H](CCc2c(F)cccc2NC(=O)[C@@H](N)[C@@H](c2ccc(F)cc2)c2cc(F)cc(F)c2)N1S(=O)(=O)C1CC1 [Example 223, (βS)-N-(2-{2-[(2S,6S)-1-(cyclopropylsulfonyl)-6-methylpiperazin-2-yl]ethyl}-3-fluorophenyl)-β-(3,5-difluorophenyl)-4-fluoro-L-phenylalaninamide]",36
7,"CC[C@H]1CNC[C@H](CCc2c(F)cccc2NC(=O)[C@@H](N)[C@@H](c2ccc(Cl)cc2)C2CCOCC2)N1S(C)(=O)=O [Example 224, (βR)-4-chloro-N-(2-{2-[(2S,6S)-6-ethyl-1-(methylsulfonyl)piperazin-2-yl]ethyl}-3-fluorophenyl)-β-(tetrahydro-2H-pyran-4-yl)-L-phenylalaninamide]",90
8,"CC[C@H]1CNC[C@H](CCc2c(F)cccc2NC(=O)[C@@H](NC(=O)OC)[C@@H](c2ccc(Cl)cc2)C2CCOCC2)N1S(C)(=O)=O [Example 225, (βR)-4-chloro-N-(2-{2-[(2S,6S)-6-ethyl-1-(methylsulfonyl)piperazin-2-yl]ethyl}-3-fluorophenyl)-Nα-(methoxycarbonyl)-β-(tetrahydro-2H-pyran-4-yl)-L-phenylalaninamide]",23
9,"CS(=O)(=O)N1C(COCc2ccccc2)CNC[C@@H]1CCc1c(F)cccc1NC(=O)[C@@H](N)[C@@H](Cc1ccc(F)cc1)c1ccc(Cl)cc1 (stereo partly drawn) [Example 226, (βS)-N-(2-{2-[(2S)-6-[(benzyloxy)methyl]-1-(methylsulfonyl)piperazin-2-yl]ethyl}-3-fluorophenyl)-4-chloro-β-(4-fluorobenzyl)-L-phenylalaninamide]",1100
10,"C[C@@H]1CNC[C@H](CCc2c(F)cncc2NC(=O)[C@@H](N)[C@@H](c2ccc(F)cc2)c2cc(F)cc(F)c2)N1S(=O)(=O)c1ccc(OC(F)(F)F)cc1 [Example 227, (βS)-β-(3,5-difluorophenyl)-4-fluoro-N-(5-fluoro-4-{2-[(2S,6R)-6-methyl-1-{[4-(trifluoromethoxy)phenyl]sulfonyl}piperazin-2-yl]ethyl}pyridin-3-yl)-L-phenylalaninamide]",23
11,"C[C@H]1CNC[C@H](CCc2c(F)cccc2NC(=O)[C@@H](N)[C@@H](c2ccc(F)cc2)c2cc(F)cc(F)c2)N1S(=O)(=O)c1ccccc1Cl [Example 229, (βS)-N-[2-(2-{(2S,6S)-1-[(2-chlorophenyl)sulfonyl]-6-methylpiperazin-2-yl}ethyl)-3-fluorophenyl]-β-(3,5-difluorophenyl)-4-fluoro-L-phenylalaninamide]",350
12,"C[C@@H]1CNC[C@H](CCc2c(F)cccc2NC(=O)[C@@H](N)[C@@H](c2ccc(F)cc2)c2cc(F)cc(F)c2)N1S(=O)(=O)c1ccccc1Cl [Example 230, (βS)-N-[2-(2-{(2S,6R)-1-[(2-chlorophenyl)sulfonyl]-6-methylpiperazin-2-yl}ethyl)-3-fluorophenyl]-β-(3,5-difluorophenyl)-4-fluoro-L-phenylalaninamide]",290
13,"COC(=O)N[C@H](C(=O)Nc1cccc(F)c1CC[C@H]1CNC[C@H](C)N1S(=O)(=O)c1ccccc1Cl)[C@@H](c1ccc(F)cc1)c1cc(F)cc(F)c1 [Example 231, (βS)-N-[2-(2-{(2S,6S)-1-[(2-chlorophenyl)sulfonyl]-6-methylpiperazin-2-yl}ethyl)-3-fluorophenyl]-β-(3,5-difluorophenyl)-4-fluoro-Nα-(methoxycarbonyl)-L-phenylalaninamide]",230
14,"COC(=O)N[C@H](C(=O)Nc1cccc(F)c1CC[C@H]1CNC[C@@H](C)N1S(=O)(=O)c1ccccc1Cl)[C@@H](c1ccc(F)cc1)c1cc(F)cc(F)c1 [Example 232, (βS)-N-[2-(2-{(2S,6R)-1-[(2-chlorophenyl)sulfonyl]-6-methylpiperazin-2-yl}ethyl)-3-fluorophenyl]-β-(3,5-difluorophenyl)-4-fluoro-Nα-(methoxycarbonyl)-L-phenylalaninamide]",190
15,"COC(=O)N[C@H](C(=O)Nc1cccc(F)c1CC[C@H]1CNC[C@H](C)N1S(C)(=O)=O)[C@@H](Cc1ccc(F)cc1)c1ccc(Cl)cc1 [Example 233, (βS)-4-chloro-β-(4-fluorobenzyl)-N-(3-fluoro-2-{2-[(2S,6S)-6-methyl-1-(methylsulfonyl)piperazin-2-yl]ethyl}phenyl)-Nα-(methoxycarbonyl)-L-phenylalaninamide]",330
16,"COC(=O)N[C@H](C(=O)Nc1cccc(F)c1CC[C@H]1CNC[C@H](C)N1S(=O)(=O)c1ccc(OC(F)(F)F)cc1)[C@@H](c1ccc(F)cc1)c1cc(F)cc(F)c1 [Example 234, (βS)-β-(3,5-difluorophenyl)-4-fluoro-N-(3-fluoro-2-{2-[(2S,6S)-6-methyl-1-{[4-(trifluoromethoxy)phenyl]sulfonyl}piperazin-2-yl]ethyl}phenyl)-Nα-(methoxycarbonyl)-L-phenylalaninamide]",49
17,"COc1ccccc1S(=O)(=O)N1[C@@H](CCc2c(F)cncc2NC(=O)[C@@H](N)[C@@H](c2ccc(F)cc2)c2cc(F)cc(F)c2)CNC[C@@H]1C [Example 235, (βS)-β-(3,5-difluorophenyl)-4-fluoro-N-[5-fluoro-4-(2-{(2S,6S)-1-[(2-methoxyphenyl)sulfonyl]-6-methylpiperazin-2-yl}ethyl)pyridin-3-yl]-L-phenylalaninamide]",23
18,"C[C@H]1CNC[C@H](CCc2c(F)cccc2NC(=O)[C@@H](N)[C@@H](c2ccc(Cl)cc2)c2cncc(F)c2)N1S(=O)(=O)c1ccccc1 [Example 236, (βS)-4-chloro-N-(3-fluoro-2-{2-[(2S,6S)-6-methyl-1-(phenylsulfonyl)piperazin-2-yl]ethyl}phenyl)-β-(5-fluoropyridin-3-yl)-L-phenylalaninamide]",8.2
19,"COC(=O)N[C@H](C(=O)Nc1cccc(F)c1CC[C@H]1CNCC(COC(C)C)N1S(=O)(=O)C1CC1)[C@@H](c1ccc(F)cc1)c1cc(F)cc(F)c1 (stereo partly drawn) [Example 237, (βS)-N-[2-(2-{(2S)-1-(cyclopropylsulfonyl)-6-[(1-methylethoxy)methyl]piperazin-2-yl}ethyl)-3-fluorophenyl]-β-(3,5-difluorophenyl)-4-fluoro-Nα-(methoxycarbonyl)-L-phenylalaninamide]",30
20,"COc1ccccc1S(=O)(=O)N1[C@@H](CCc2c(F)cccc2NC(=O)[C@@H](N)[C@@H](c2ccc(F)cc2)c2cc(F)cc(F)c2)CNC[C@@H]1C [Example 238, (βS)-β-(3,5-difluorophenyl)-4-fluoro-N-[3-fluoro-2-(2-{(2S,6S)-1-[(2-methoxyphenyl)sulfonyl]-6-methylpiperazin-2-yl}ethyl)phenyl]-L-phenylalaninamide]",110

# Same assay, conditions: MT4-GFP cells infected with HIV-1 H9IIIB; 50% normal human serum; mean of at least two independent experiments; read-out: Cell-based IP
row,Compound,IC50 [nM]
1,"COCC1CNC[C@H](CCc2c(F)cccc2NC(=O)[C@@H](N)[C@@H](c2ccc(Cl)cc2)C2CCOCC2)N1S(C)(=O)=O (stereo partly drawn) [Example 218, (βR)-4-chloro-N-(3-fluoro-2-{2-[(2S)-6-(methoxymethyl)-1-(methylsulfonyl)piperazin-2-yl]ethyl}phenyl)-β-(tetrahydro-2H-pyran-4-yl)-L-phenylalaninamide]",310
2,"CC(C)OCC1CNC[C@H](CCc2c(F)cccc2NC(=O)[C@@H](N)[C@@H](c2ccc(F)cc2)c2cc(F)cc(F)c2)N1S(=O)(=O)C1CC1 (stereo partly drawn) [Example 228, (βS)-N-[2-(2-{(2S)-1-(cyclopropylsulfonyl)-6-[(1-methylethoxy)methyl]piperazin-2-yl}ethyl)-3-fluorophenyl]-β-(3,5-difluorophenyl)-4-fluoro-L-phenylalaninamide]",15
